How the values were obtained:
[1] = test system: Plasmodium falciparum; test: microbe, parasite or virus in culture; details: 3D7, 72 h
[2] = Inhibition of Plasmodium falciparum DHODH expressed in Escherichia coli BL21-DE3 using L-dihydroorotate as substrate by steady-state DCIP method
[3] = test system: Plasmodium falciparum

| SMILES | EC50 [1] | IC50 [2] | EC50 [3] |
| --- | --- | --- | --- |
| Cc1c(-c2n[nH]c3nc(C(F)(F)F)ccc23)c[nH]c1C(=O)NCC(F)(F)F | > 10 µM | 3.9 µM | – |
| COC1COCC1NC(=O)c1[nH]cc(Cc2ccc(C(F)(F)F)nc2)c1C (stereo not drawn) | 1.1 µM | 17 µM | – |
| Cc1c(-c2n[nH]c3nc(C(F)(F)F)ccc23)c[nH]c1C(=O)N1CC(F)(F)C1 | > 10 µM | 2.1 µM | – |
| COC(=O)c1c(Cc2ccc(C(F)(F)F)nc2)c[nH]c1C(=O)NC1CC1 | 1.4 µM | 6.4 µM | – |
| CNC(=O)[C@@H](C)NC(=O)c1[nH]cc(Cc2ccc(C(F)(F)F)nc2)c1C | 8.9 µM | 39 µM | – |
| Cc1c(Cc2ccc(C(F)(F)F)nc2)c[nH]c1C(=O)NC1COC1 | 0.074 µM | 0.11 µM | – |
| Cc1c(Cc2ccc(S(=O)(=O)N(C)C)cc2)c[nH]c1C(=O)NC1CC1 | 0.7 µM | 1.5 µM | – |
| CNC(=O)c1c(Cc2ccc(C(F)(F)F)nc2)c[nH]c1C(=O)NC1CC1 | 3.4 µM | 16 µM | – |
| Cc1c(-c2c[nH]c3cc(C(F)(F)F)ccc23)c[nH]c1C(=O)NCC(F)(F)F | 1.2 µM | 18 µM | – |
| Cc1c(Cc2ccc(C(F)(F)F)nc2)c[nH]c1C(=O)N[C@H](C)C(N)=O | > 10 µM | > 100 µM | – |
| Cc1c(-c2c[nH]c3nc(C(F)(F)F)ccc23)c[nH]c1C(=O)NCC(F)(F)F | 0.05 µM | 0.5 µM | – |
| NC(=O)c1c(Cc2ccc(C(F)(F)F)nc2)c[nH]c1C(=O)NC1CC1 | 2.1 µM | 4.9 µM | – |
| Cc1c(-c2c[nH]c3cc(C(F)(F)F)ccc23)c[nH]c1C(=O)NC1CC1 | 0.19 µM | 1.6 µM | – |
| Cc1c(-c2n[nH]c3cc(C(F)(F)F)ccc23)c[nH]c1C(=O)NCC(F)(F)F | 0.61 µM | 22 µM | – |
| Cc1c(Cc2ccc(C(F)(F)F)nc2)c[nH]c1C(=O)NCc1cc[nH]n1 | 1.4 µM | 17 µM | – |
| Cc1c(Cc2ccc(C(F)(F)F)nc2)c[nH]c1C(=O)N[C@H](C)CO | 2.1 µM | 2.7 µM | – |
| Cc1c(-c2n[nH]c3cc(C(F)(F)F)ccc23)c[nH]c1C(=O)NC1CC1 | 0.25 µM | 4.1 µM | – |
| Cc1c(Cc2ccc(C(F)(F)F)nc2)c[nH]c1C(=O)NC1COCC1O (stereo not drawn) | 6.4 µM | 61 µM | – |
| Cc1c(-c2c[nH]c3cc(C(F)(F)F)ccc23)c[nH]c1C(=O)N1CC(F)(F)C1 | 0.62 µM | 16 µM | – |
| Cc1c(-c2c[nH]c3nc(C(F)(F)F)ccc23)c[nH]c1C(=O)N1CC(F)(F)C1 | 0.032 µM | 0.11 µM | – |
| Cc1c(-c2n[nH]c3cc(C(F)(F)F)ccc23)c[nH]c1C(=O)N1CC(F)(F)C1 | 0.48 µM | 3.6 µM | – |
| Cc1c(Cc2ccc(C(F)(F)F)nc2C#N)c[nH]c1C(=O)NC(C)c1nc[nH]n1 (racemic) | 2.3 µM | 1.9 µM | – |

| SMILES | EC50 [1] | IC50 [2] | EC50 [3] |
| --- | --- | --- | --- |
| Cc1c(Cc2ccc(C(F)(F)F)nc2)c[nH]c1C(=O)NC(C)c1cc[nH]n1 (racemic) | 0.043 µM | 0.27 µM | – |
| Cc1c(Cc2cccc(F)c2C#N)c[nH]c1C(=O)NC(C)c1nc[nH]n1 (racemic) | 1.1 µM | 0.48 µM | – |
| Cc1c(Cc2ccc(C(F)(F)F)nc2)c[nH]c1C(=O)NC(C)c1ncn(C)n1 (racemic) | 13 µM | 4 µM | – |
| Cc1cc(C(C)NC(=O)c2[nH]cc(C3(c4ccc(C(F)(F)F)nc4)CC3)c2C)n[nH]1 (stereo in doubt; form 1) | 3.3 µM | – | – |
| Cc1c(C2(c3ccc(C(F)(F)F)nc3)CC2)c[nH]c1C(=O)NC(C)c1cn[nH]c1 (stereo in doubt; form 1) | – | – | 1.3 µM |
| Cc1c(C2(c3ccc(C(F)F)nc3)CC2)c[nH]c1C(=O)NC(C)c1nc[nH]n1 (stereo in doubt; form 1) | – | 0.15 µM | 0.18 µM |
| Cc1c(C2(c3ccc(C(F)(F)F)cc3F)CC2)c[nH]c1C(=O)NC(C)c1nc[nH]n1 (stereo in doubt; form 1) | – | 1.2 µM | 12 µM |
| Cc1c(C(=O)NC(C)c2nc[nH]n2)[nH]c(Cl)c1Cc1ccc(C(F)(F)F)nc1 (stereo in doubt; form 1) | – | > 100 µM | > 10 µM |
| Cc1cc(C(C)NC(=O)c2[nH]c(C)c(Cc3ccc(C(F)(F)F)nc3)c2C#N)no1 (stereo in doubt; form 1) | – | 3.2 µM | 1.8 µM |
| Cc1c(-c2c[nH]c3nc(C(F)(F)F)ccc23)c[nH]c1C(=O)NC(C)c1nc[nH]n1 (stereo in doubt; form 1) | – | 0.51 µM | 0.053 µM |
| Cc1cc(C(C)NC(=O)c2[nH]cc(-c3n[nH]c4cc(C(F)(F)F)ccc34)c2C)no1 (stereo in doubt; form 1) | – | > 100 µM | > 10 µM |
| Cc1[nH]c(C(=O)N[C@H](C)c2cn[nH]c2)c(C#N)c1Cc1ccc(C(F)(F)F)nc1 (stereo in doubt; form 1) | – | 42 µM | > 1 µM |
| Cc1c(C2(c3ccc(C(F)(F)F)nc3)CC2)c[nH]c1C(=O)NC(C)c1cc(C#N)[nH]n1 (stereo in doubt; form 1) | 1.7 µM | – | – |
| Cc1c(Cc2ccc(F)c(F)c2)c[nH]c1C(=O)NC(C)c1nc[nH]n1 (stereo in doubt; form 1) | – | 0.4 µM | 0.72 µM |
| CNC(=O)c1cc(C(C)NC(=O)c2[nH]cc(C3(c4ccc(C(F)(F)F)nc4)CC3)c2C)n[nH]1 (stereo in doubt; form 1) | – | 0.39 µM | 0.52 µM |
| Cc1cc(C(C)NC(=O)c2[nH]cc(-c3c[nH]c4cc(C(F)(F)F)ccc34)c2C)no1 (stereo in doubt; form 1) | – | > 100 µM | > 1 µM |
| Cc1[nH]c(C(=O)NC(C)c2cnn(C)c2)c(C)c1Cc1ccc(C(F)(F)F)nc1 (stereo in doubt; form 1) | – | > 30 µM | > 10 µM |
| CNC(=O)c1cc(C(C)NC(=O)c2[nH]cc(Cc3ccc(C(F)(F)F)nc3)c2C)n[nH]1 (stereo in doubt; form 1) | – | 1 µM | 0.17 µM |
| Cc1c(C2(c3ccc(C(F)(F)F)nc3)CC2)c[nH]c1C(=O)NC(C)c1cc(C(N)=O)[nH]n1 (stereo in doubt; form 2) | – | 57 µM | 0.0094 µM |
| Cc1c(C2(c3ccc(C(F)(F)F)nc3)CC2)c[nH]c1C(=O)NC(C)c1cn[nH]c1 (stereo in doubt; form 2) | – | – | 0.0012 µM |
| Cc1[nH]c(C(=O)NC(C)c2nc[nH]n2)c(C)c1Cc1ccc(C(F)(F)F)nc1 (stereo in doubt; form 2) | – | 43 µM | 0.75 µM |
| Cc1c(C2(c3ccc(C(F)F)nc3)CC2)c[nH]c1C(=O)NC(C)c1nc[nH]n1 (stereo in doubt; form 2) | – | > 30 µM | > 20 µM |

| SMILES | EC50 [1] | IC50 [2] | EC50 [3] |
| --- | --- | --- | --- |
| Cc1cc(C(C)NC(=O)c2[nH]c(C)c(Cc3ccc(C(F)(F)F)nc3)c2C)no1 (stereo in doubt; form 2) | – | 53 µM | > 1 µM |
| Cc1c(C2(c3ccc(C(F)(F)F)cc3F)CC2)c[nH]c1C(=O)NC(C)c1nc[nH]n1 (stereo in doubt; form 2) | – | > 100 µM | 0.41 µM |
| Cc1c(Cc2ccc(C(F)(F)F)nc2)c[nH]c1C(=O)NC(C)c1cc(C(N)=O)[nH]n1 (stereo in doubt; form 2) | – | 33 µM | 16 µM |
| Cc1c(Cc2ccc(C(F)(F)F)nc2)c[nH]c1C(=O)NC(C)c1cn[nH]c1 (stereo in doubt; form 2) | – | 6.4 µM | 0.37 µM |
| Cc1c(Cc2ccc(C(F)(F)F)nc2)c[nH]c1C(=O)NC(C)c1cnn(C)c1 (stereo in doubt; form 2) | – | – | 0.35 µM |
| Cc1c(Cc2ccc(F)c3ccncc23)c[nH]c1C(=O)NC(C)c1nc[nH]n1 (stereo in doubt; form 2) | – | 23 µM | 2.3 µM |
| Cc1c(C2(c3cccc(C(F)(F)F)c3)CC2)c[nH]c1C(=O)NC(C)c1nc[nH]n1 (stereo in doubt; form 2) | – | > 30 µM | 2.8 µM |
| Cc1c(Cc2ccc(C(F)(F)F)nc2)c[nH]c1C(=O)NC(C)c1nc[nH]n1 (stereo in doubt; form 2) | – | > 100 µM | 16 µM |
| Cc1cc(C(C)NC(=O)c2[nH]cc(C3(c4ccc(C(F)(F)F)nc4)CC3)c2C)no1 (stereo in doubt; form 2) | – | 80 µM | 0.0012 µM |
| Cc1c(C2(c3ccc(C(F)(F)F)c(F)c3)CC2)c[nH]c1C(=O)NC(C)c1nc[nH]n1 (stereo in doubt; form 2) | – | 34 µM | 5.4 µM |
| Cc1c(-c2c[nH]c3nc(C(F)(F)F)ccc23)c[nH]c1C(=O)NC(C)c1nc[nH]n1 (stereo in doubt; form 2) | – | 25 µM | 2 µM |
| Cc1[nH]c(C(=O)NC(C)c2cn[nH]c2)c(C)c1Cc1ccc(C(F)(F)F)nc1 (stereo in doubt; form 2) | – | 11 µM | 0.19 µM |
| Cc1cc(C(C)NC(=O)c2[nH]cc(Cc3ccc(C(F)(F)F)cc3)c2C)no1 (stereo in doubt; form 2) | – | 48 µM | 6.2 µM |
| Cc1cc(C(C)NC(=O)c2[nH]cc(Cc3ccc(C(F)(F)F)nc3)c2C)no1 (stereo in doubt; form 2) | – | – | 0.45 µM |
| Cc1cc(C(C)NC(=O)c2[nH]cc(Cc3ccc(C(F)(F)F)nc3)c2C)n[nH]1 (stereo in doubt; form 2) | – | 68 µM | > 10 µM |
| Cc1c(Cc2ccc(C(F)(F)F)cc2F)c[nH]c1C(=O)NC(C)c1nc[nH]n1 (stereo in doubt; form 2) | – | 36 µM | 5.8 µM |
| Cc1c(Cc2ccc(C(F)(F)F)nc2)c[nH]c1C(=O)NC(C)c1cc(C#N)[nH]n1 (stereo in doubt; form 2) | – | 54 µM | 6.1 µM |
| Cc1c(Cc2ccc(F)c(F)c2)c[nH]c1C(=O)NC(C)c1nc[nH]n1 (stereo in doubt; form 2) | – | > 100 µM | > 10 µM |
| CNC(=O)c1cc(C(C)NC(=O)c2[nH]cc(C3(c4ccc(C(F)(F)F)nc4)CC3)c2C)n[nH]1 (stereo in doubt; form 2) | – | 55 µM | 0.044 µM |
| CNC(=O)c1cc(C(C)NC(=O)c2[nH]cc(Cc3ccc(C(F)(F)F)nc3)c2C)n[nH]1 (stereo in doubt; form 2) | – | 89 µM | 4.8 µM |
| Cc1c(C(=O)NC(C)c2nc[nH]n2)[nH]c(Cl)c1Cc1ccc(C(F)(F)F)nc1 (stereo in doubt; form 3) | – | 64 µM | – |
